Reference: the supplement of paper PMC10307832

Key:
Assay in all cases: relative viability (nuclei count vs DMSO), 5 days (fraction); higher = more cells survive
[1] = compound: C[C@]1(O)C[C@@H](c2nc(-c3ccc4ccc(-c5ccccc5)nc4c3)c3c(N)nccn32)C1 [Linsitinib] + Cc1cc(Nc2cc(N3CCN(C)CC3)nc(Sc3ccc(NC(=O)C4CC4)cc3)n2)n[nH]1 [Tozasertib] (partner 0.1 µM)
Procedure, shortened: (§1)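 Dosing by pin tool came one day after lung cancer cell lines were seeded in 1536-well plates, using either one drug or a fixed anchor-drug dose plus five library-drug doses (not always all listed) in √10 steps. After 5 days, nuclei were counted on 4× images. Relative viability is treated-well nuclei count divided by vehicle-well nuclei count, and values are medians of duplicate plates.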

[2] = compound: Cc1ccc(C(=O)N(CCCN)[C@@H](c2nc3cc(Cl)ccc3c(=O)n2Cc2ccccc2)C(C)C)cc1 [Ispinesib] + C[C@]1(O)C[C@@H](c2nc(-c3ccc4ccc(-c5ccccc5)nc4c3)c3c(N)nccn32)C1 [Linsitinib] (partner 1 µM)
Procedure, shortened: as §1

[3] = compound: Cc1ccc(C(=O)N(CCCN)[C@@H](c2nc3cc(Cl)ccc3c(=O)n2Cc2ccccc2)C(C)C)cc1 [Ispinesib] + CC(C)C[C@H](NC(=O)[C@H](Cc1ccccc1)NC(=O)c1cnccn1)B(O)O [Bortezomib] (partner 0.002 µM)
Procedure, shortened: as §1

[4] = compound: C[C@]1(O)C[C@@H](c2nc(-c3ccc4ccc(-c5ccccc5)nc4c3)c3c(N)nccn32)C1 [Linsitinib] + COc1cccc2cc(-c3nc([C@H]4CC[C@H](C(=O)O)CC4)n4ncnc(N)c34)[nH]c12 [OSI-027] (partner 0.5 µM)
Procedure, shortened: as §1

Cell Line | relative viability ([1]; first compound 0.01 µM) | relative viability ([1]; first compound 0.03162 µM) | relative viability ([1]; first compound 0.1 µM) | relative viability ([1]; first compound 0.3162 µM) | relative viability ([1]; first compound 1 µM) | relative viability ([2]; first compound 0.001 µM) | relative viability ([2]; first compound 0.003162 µM) | relative viability ([2]; first compound 0.01 µM) | relative viability ([2]; first compound 0.1 µM) | relative viability ([3]; first compound 0.001 µM) | relative viability ([3]; first compound 0.003162 µM) | relative viability ([3]; first compound 0.01 µM) | relative viability ([3]; first compound 0.03162 µM) | relative viability ([3]; first compound 0.1 µM) | relative viability ([4]; first compound 0.01 µM) | relative viability ([4]; first compound 0.03162 µM) | relative viability ([4]; first compound 0.1 µM) | relative viability ([4]; first compound 0.3162 µM) | relative viability ([4]; first compound 1 µM) | relative viability ([2]; first compound 0.03162 µM)
HCC-78 | 0.643 | 0.482 | 0.418 | 0.378 | 0.319 | 0.51 | 0.498 | 0.509 | 0.151 | 0.504 | 0.531 | 0.459 | 0.308 | 0.394 | 0.377 | 0.379 | 0.31 | 0.377 | 0.347 | –
HCC-366 | 0.108 | 0.147 | 0.187 | 0.0897 | 0.0876 | 1.13 | 0.595 | 1.04 | 0.167 | 1.29 | 1.1 | 1.43 | 0.323 | 0.0344 | 1.03 | 0.999 | 0.888 | 0.821 | 0.235 | 0.719
HCC-827 | 0.43 | 0.426 | 0.433 | – | 0.393 | 0.955 | 1.01 | 1.01 | 0.892 | 1.1 | 1.18 | 1.04 | 0.691 | 0.875 | 0.769 | 0.836 | 0.821 | – | 0.771 | 0.959
HOP-62 | 0.356 | 0.336 | 0.335 | – | 0.344 | 0.99 | 1.14 | 0.952 | 0.742 | 0.46 | 0.974 | 1.18 | 1.09 | 0.32 | 0.877 | 0.866 | 0.96 | – | 0.544 | 1.05
IA-LM | – | – | – | – | – | 0.493 | 0.567 | 0.996 | 0.158 | 1.09 | 0.814 | 0.866 | 0.0909 | 0.111 | – | – | – | – | – | 0.549
LC-2-ad | 0.48 | 0.523 | 0.387 | 0.285 | 0.41 | 0.842 | 0.845 | 0.971 | 0.184 | 1.01 | 1.07 | 1.07 | 0.917 | 0.119 | 0.803 | 0.827 | 0.684 | 0.414 | 0.422 | 0.556
LK-2 | 0.179 | 0.173 | 0.172 | 0.18 | 0.177 | 0.805 | 0.328 | 0.521 | 0.267 | – | – | – | – | – | 0.243 | 0.242 | 0.154 | 0.167 | 0.168 | 0.435
NCI-H358 | 0.0907 | 0.0851 | 0.114 | 0.0862 | 0.0939 | 0.785 | 0.671 | 0.735 | 0.236 | – | – | – | – | – | 0.781 | 0.928 | 0.68 | 0.421 | 0.246 | 0.397
NCI-H522 | 0.525 | 0.516 | 0.521 | – | 0.514 | – | – | – | – | – | – | – | – | – | 0.729 | 0.798 | 0.695 | – | 0.574 | –
NCI-H1299 | – | – | – | – | – | 1.06 | 1.12 | 0.81 | 0.375 | 1.02 | 1.06 | 1.07 | 1.01 | 0.671 | – | – | – | – | – | 0.941
NCI-H1395 | 0.838 | 0.768 | 0.723 | 0.731 | 0.667 | 1.1 | 1.04 | 0.966 | 0.436 | – | – | – | – | – | 0.571 | 0.637 | 0.612 | 0.622 | 0.545 | 0.407
NCI-H1563 | – | – | – | – | – | 1.29 | 1.19 | 1.27 | 0.844 | 0.903 | 0.815 | 0.929 | 0.687 | 0.669 | 0.695 | 0.786 | 0.714 | 0.87 | 0.63 | 1.1
NCI-H1623 | 0.363 | 0.445 | 0.412 | – | 0.364 | – | – | – | – | – | – | – | – | – | 0.408 | 0.432 | 0.398 | – | 0.285 | –
NCI-H1648 | 0.5 | 0.697 | 0.412 | – | 0.396 | – | – | – | – | – | – | – | – | – | 0.26 | 0.265 | 0.264 | – | 0.245 | –
NCI-H1650 | 0.412 | 0.549 | 0.412 | 0.323 | 0.288 | – | – | – | – | 0.187 | 0.211 | 0.188 | 0.173 | 0.205 | 0.576 | 0.598 | 0.527 | 0.242 | 0.222 | –
NCI-H1703 | – | – | – | – | – | 0.742 | 0.64 | 0.504 | 0.0823 | 0.28 | 0.298 | 0.0844 | 0.0907 | 0.106 | – | – | – | – | – | 0.106
NCI-H1792 | – | – | – | – | – | 0.45 | 0.52 | 0.492 | 0.392 | 1.14 | 1.02 | 1.09 | 0.797 | 0.337 | – | 0.728 | 0.619 | 0.481 | 0.292 | 0.25
NCI-H1793 | 0.388 | 0.454 | 0.316 | 0.313 | 0.274 | 0.866 | 1.02 | 0.961 | 0.562 | – | – | – | – | – | 0.25 | 0.314 | 0.246 | 0.205 | 0.175 | 0.707
NCI-H1944 | 0.247 | 0.256 | 0.235 | 0.209 | 0.221 | 1.24 | 1.38 | 1.18 | 0.979 | – | – | – | – | – | 0.427 | 0.474 | 0.393 | 0.315 | 0.217 | 0.975
NCI-H2170 | 0.732 | 0.76 | 0.681 | 0.513 | 0.678 | – | – | – | – | – | – | – | – | – | 0.752 | 0.756 | 0.708 | 0.417 | 0.638 | –
NCI-H2342 | 0.554 | 0.54 | 0.516 | 0.651 | 0.412 | – | – | – | – | – | – | – | – | – | 0.521 | 0.608 | 0.608 | 0.53 | 0.551 | –
SK-MES-1 | 0.92 | 0.895 | 0.927 | 0.8 | 0.676 | 1.1 | 1.09 | 1.21 | 0.261 | – | – | – | – | – | 0.541 | 0.417 | 0.603 | 0.458 | 0.332 | 1.11
SW 900 | 0.635 | 0.598 | 0.535 | 0.513 | 0.342 | – | – | – | – | – | – | – | – | – | 0.565 | 0.593 | 0.481 | 0.397 | 0.352 | –
